Results on 1 molecule are retold here after patent US11510964B2, “Macrocyclic peptides to decrease c-Myc protein levels and reduce cancer cell growth” (University of Kansas, priority 2017, dated 2022).

Non-standard residues stand in square brackets, D forms with d. Residues, ends and D or L forms follow the SMILES beside them.

In data set [1] the test system is transfected HEK-293 cells. In words: c-Myc overexpression, Annexin V-APC/PI apoptosis assay. The conditions noted are these: 10 μM, 48 h. Format: cell-based, human. The method, then:
(§1) The extent of apoptosis was analyzed by detecting surface expression of phosphatidylserine on apoptotic cells using an Annexin V-APC/PI dual staining apoptosis detection kit I (BD Biosciences) according to the manufacturer's protocol. Following treatment of PC-3 cells with 10 μM [D-Trp]CJ-15,208 or vehicle for 24 h or 48 h, the cells were collected, washed twice with cold PBS, and resuspended in 1× binding buffer at a concentration of 1×10^6 cells/mL. Cell suspension (100 μL) was transferred to a 5 ml culture tube, and 5 μL of Annexin V-APC and 25 μL of PI (50 μg/mL) were added. The cells were incubated for 15 min at room temperature in the dark with gentle vortexing, 400 μL of 1× binding buffer was then added to each sample, and the samples were analyzed using a Beckman-Coulter MoFlo XDP flow cytometer within one hour. The number of viable, apoptotic and necrotic cells were quantified using FlowJo v10.0.7. The apoptosis fraction (%) was calculated as (number of apoptotic cells/the number of total cells observed)×100%.^38
Forced expression of c-Myc in HEK 293 cells was performed using X-temeGENE HP #6366244001 (Sigma). Cells were cultured in antibiotic free DMEM supplemented with 10% FBS and transfected with pcDNA3-HA-HA-c-Myc #74164 (Addgene). Empty-vector pcDNA3-EV was used as a control. […] Samples were analyzed using a BD FACSCanto-II cell analyzer and quantified in FlowJo v10.2. […]

For data set [2] the following is noted: mice, after systemic administration; cited from earlier work.
In data set [3] the test system is PC-3 cells. In words: Annexin V-APC/PI apoptosis assay. Format: cell-based, human. The settings on record: PC-3, 10 μM. The method, then: as §1
(§2) Each experiment was performed in triplicate unless otherwise stated in the figure legend. GraphPad Prism 5 was used to determine IC50 values. Data represent the mean value+/−SEM. Compound vs. vehicle treated cells in the cell cycle phase and apoptosis experiments (FIGS. 5-8) were compared using the student's t-test, with a two-tailed, unpaired method, using the Prism software. The effects of compound vs. vehicle treatment on protein levels (FIG. 10) were evaluated by one-way ANOVA with Dunnett's test for multiple comparisons.

The conditions of data set [4]: cited from earlier work.
In the next data set the test system is Erk in PC-3 cells. In words: Western blot of p-Erk/total Erk protein levels. In kind it is cell-based, human. The method, then:
(§3) Cells were seeded in 6 well plates at a density of 1×10^5 cells/well and grown to 75% confluence. Cells were treated with [D-Trp]CJ-15,208 at the indicated concentrations. Cells were then harvested as described above, and the cell pellets lysed in RIPA buffer consisting of 10 mM Tris HCl, pH 8.0, 150 mM NaCl, 1 mM EDTA, 1% Triton-X-100, 0.1% SDS, 1% sodium deoxycholate, and a protease inhibitor cocktail #P8340 (Sigma). Cell lysates were centrifuged at 13×1000 rpm for 15 min and the supernatants collected. The total protein concentration was measured in cell lysates using the standard Bradford assay. SDS gel electrophoresis was performed using 4-20% polyacrylamide gel (BioRad). […] Signal densities of the protein bands were determined using ImageJ software (NIH) and normalized to the internal loading control (actin).
(§4) Each experiment was performed in triplicate unless otherwise stated in the figure legend. […] The effects of compound vs. vehicle treatment on protein levels (FIG. 10) were evaluated by one-way ANOVA with Dunnett's test for multiple comparisons.
On the technique in general: In western blotting, separated proteins are transferred to a membrane and probed.

Data set [5] concerns PC-3 cells. In words: Cell cycle analysis (PI, flow cytometry). Format: cell-based, human. The conditions noted are these: PC-3, 10 μM. The method, then:
PC-3 cells were grown in T-75 flask to 75% confluency and treated with either 10 μM [D-Trp]CJ-15,208 in 0.5% DMSO or 0.5% DMSO as a vehicle control for 24-48 h. After treatment, the cell media was collected, the cells were washed with ice cold PBS twice, and the washes collected with the media. The cells were then trypsinized and the combined cells and media centrifuged at 1200 rpm for 5 min. The cell pellet was resuspended in PBS, the cells counted using a hematocytometer, and 1 million cells resuspended in 300 μL PBS. The cells were fixed with 700 μL ice cold 100% ethanol overnight and then centrifuged at 1200 rpm. Following removal of the ethanol, the cells were resuspended in 500 μL PBS containing 100 μg/mL RNAse and incubated for 30 min at room temperature. Propidium iodide (PI) solution (Sigma, 100 μg/mL) was added, and the solution then incubated for 30 min at room temperature in the dark. Cell cycle analysis^38 was performed using a Beckman-Coulter MoFlo XDP flow cytometer, and the cell cycle phase distribution was analyzed using FlowJo v10.1.
as §2
(In general: A flow cytometer gives signals particle by particle.)

Another data set has as its system PP2A in PC-3 cells. In words: Western blot of p-PP2A/total PP2A protein levels. In kind it is cell-based, human. How it is done: as §3, §4
For another data set, the system named is Akt in PC-3 cells. In words: Western blot of p-Akt/total Akt protein levels. In kind it is cell-based, human. The conditions noted are these: 48 h. The method, then: as §3, §4

With `O=C1N[C@H](Cc2c[nH]c3ccccc23)C(=O)N[C@@H](Cc2ccccc2)C(=O)N2CCC[C@@H]2C(=O)N[C@H]1Cc1ccccc1` [[D-Trp]CJ-15,208, cyclo[Phe-D-Pro-Phe-D-Trp]] (cyclo(F[dP]F[dW])), in data set [1] (HEK-293 overexpressing c-Myc), the early apoptosis result is “significant increase in early apotosis”. Besides, the early apoptosis entry in data set [1] (HEK-293 transfected with empty vector) is on record as “no significant difference”. Besides, in data set [2], the blood-brain barrier penetration entry is recorded as “appear to penetrate the blood-brain barrier”. Also, in the data set on PC-3 cells [3] (24 h), the “number of cells in early or late apoptosis” value was “No significant change”. Moreover, in the data set on PC-3 cells [3] (48 h), the “increase of number of cells in early apoptosis vs. vehicle” value amounted to 10 fold and the “increase of number of cells in late apoptosis vs. vehicle” value came out at 3 fold. Besides, the “activity after oral administration” value in data set [4] is “active after oral administration”. For the same molecule, the “total Erk protein levels” value in the data set on Erk in PC-3 cells (PC-3, 48 h) was “did not decrease significantly”. In addition, the “cellular levels of p-Erk” value in the data set on Erk in PC-3 cells (PC-3, increasing concentrations, 48 h) is recorded as “did not change significantly”. Further, in the data set on PC-3 cells [5] (24 h), the “cell population in G2 phase” value is 42±4%, the “mean cell distribution in S phase” value is recorded as 26±4% and the “mean cell population in G1 phase” value is 32±1%. Further, the “cells accumulated in G2 phase compared to vehicle treated control cells” value with PC-3 cells [5] (24 h or 48 h) is “at least 8 fold”. For the same molecule, in the data set on PC-3 cells [5] (48 h), the “cell population in G2 phase” value is given as 58±4%, the “mean cell distribution in S phase” value was determined as 12±0.6% and the “mean cell population in G1 phase” value worked out at 31±6%. Moreover, the “total PP2A protein levels” value in the data set with PP2A in PC-3 cells (PC-3, 48 h, vs. vehicle treated cells) is on record as “not significantly different”. Further, the p-PP2A levels entry with PP2A in PC-3 cells (PC-3, concentrations ≥10 μM, 48 h) is recorded as “significantly reduced”. In the data set with Akt in PC-3 cells (PC-3, highest concentration (50 μM)), the “total Akt protein levels” value is “significant decrease”. In the data set on Akt in PC-3 cells (PC-3, increasing concentrations), the “cellular levels of p-Akt” value was “did not change significantly”.
